Experiment: Photobleaching of Eosin Y in carbomer gel under blue light
Assay type: physicochemical
Conditions: 109 μg/g Eosin Y, 12% urea peroxide, 200 ppm KI, blue light 5 cm, 10 minutes
Protocol: In this experiment, a first carbomer gel comprising 109 μg/g of Eosin Y and 12% urea peroxide (UP) was prepared. […] The two gels were then illuminated with blue light (5 cm distance) for 10 minutes. The fluorescence was measured and recorded by a spectrophotometer.

For `[I-].[K+]` [KI], the “time taken to photobleach the chromophore” value was “prolonged the time taken to photobleach the chromophore”.

From patent publication US20170209348A1, “BIOPHOTONIC COMPOSITIONS COMPRISING HALOGEN AND USES THEREOF” (KLOX Technologies Inc., priority 2014, published 2017)
